Earlier results in patent publication US5348946A, “Heteroanthracycline antitumor analogs” (Biochem Immunosystems, Inc., priority 1991, dated 1994).

Conditions: compared with daunorubicin and doxorubicin; cited from earlier work

| Structure (SMILES) | antileukemic activity |
| --- | --- |
| CC(=O)[C@]1(O)Cc2c(c(O)c3oc4ccccc4c(=O)c3c2O)[C@@H](O[C@H]2C[C@H](N)[C@H](O)[C@H](C)O2)C1 [Compound 4] | antileukemic activity, but lower than that of the parent antibiotics daunorubicin and doxorubicin |
| CC(=O)[C@]1(O)Cc2c(c(O)c3oc4ccccc4c(=O)c3c2O)[C@@H](O[C@H]2C[C@H](NC(=O)C(F)(F)F)[C@H](O)[C@H](C)O2)C1 [Compound 5] | antileukemic activity, but lower than that of the parent antibiotics daunorubicin and doxorubicin |
| CC(=O)[C@@H]1Cc2c(c(O)c3oc4ccccc4c(=O)c3c2O)[C@@H](O[C@H]2C[C@H](N)[C@H](O)[C@H](C)O2)C1 [Compound 3] | antileukemic activity, but lower than that of the parent antibiotics daunorubicin and doxorubicin |
